Like-named read-outs stand apart in the source and are kept apart here. Square brackets hold non-standard residues; d marks the D form. Nle = CCCC[C@H](N)C(=O)O
Assays:
Type in all cases: cell-based, rat
[1] = tested on: PC12 cells; assay: Neuroprotective action against β-amyloid, viable cell count / survival rate by WST-8 method; design: key to Neuroprotective action: +, P < 0.05 when compared with the no neuropeptide-added group; settings: for neuroprotective action against cell death by β-amyloid (cell survival rate): co-existing with β-amyloid, PACAP27 10^−9 M
Description: An experiment was performed similarly to Example 5, and then the neuroprotective action against cell death by β-amyloid of the following PACAP-related neuropeptides (peptides 1, 2, 4, 5, 7, 8, 15, 16, 17, 19, 21, 26, 27, 28, 29, 30, 31, 32, 33, 34, 35, 36, 37, 38 and 39) and VIP-related neuropeptides (peptides 3, 9, 10, 11, 12, 13, 14, 18, 20, 22, 23, 24 and 25) was confirmed. Specifically, amyloid (50 μM) and each of the various PACAP-related neuropeptides and VIP-related neuropeptides were added to the cultured PC12 cells. The number of […] calculated by the WST-8 method, so that comparison and examination was performed for the neuroprotective action of these various peptides against amyloid. If the neuropeptides had neuroprotective action, a clear difference in viable cell count can be observed between cases in which neuropeptides were added and cases in which neuropeptides were not added. In PC12 cells added with each of the various neuropeptides, a case wherein a higher cell survival rate (P<0.05) was observed compared with groups in which neuropeptides had not been added, was determined as having neuroprotective action. The results are shown in Table 1 and Table 2. β-amyloid was added to PC12 cells that had been cultured similarly to Example 5. At this time, neuropeptides PACAP27, VIP and humanin, and a cell-permeable cAMP derivative were allowed to respectively co-exist, so that the effect of these neuropeptides against cell death by β-amyloid was confirmed. Cell death was examined by evaluating cell count using the WST-8 method, and then by calculating cell survival rate. […] In the presence of β-amyloid, approximately 70% of the cells died. […] The neuroprotective action of humanin, a recently found human-derived neuroprotective substance (Proc Natl Acad Sci USA (2001) 98 (11) 6336-6341), was also examined. […] At this time, neuropeptides at various concentrations were allowed to co-exist, so that the relationship between the neuroprotective action and the concentration was investigated. Cells were calculated by the WST-8 method, and then the extent to which cell death by β-amyloid could be attenuated was expressed numerically.

[2] = tested on: PC12 cells; assay: Cell death by β-amyloid monitored by lactate dehydrogenase release; settings: for cell death by β-amyloid vs control group: 48 hours, FIG. 3
[3] = tested on: caspase-3; assay: Caspase-3 activating action of β-amyloid and its suppression (Ac-DEVD-AMC substrate); settings: FIG. 7
Description: PC12 cells that had been cultured almost similarly to Example 4 were cultured in a 24-well plate (2×10^5 cells/well). 10^−5 M β-amyloid was added to the plate. At this time, cAMP derivative (10^−4 M) and neuropeptide PACAP (10^−9 M) were added respectively, and then the action of activating caspase-3, an apoptosis-related enzyme, was examined. The caspase-3 activating action was examined using Ac-DEVD-AMC, a caspase-3 specific substrate. […] Further, by the addition of neuropeptide PACAP, an incomplete, approximately 50% suppressive effect was shown. […] Taking into consideration that this suppressive action is not complete, other action mechanisms may also be involved.

[4] = VIP-related neuropeptide 10^−7 M, amyloid (50 μM), cell survival rate vs no peptide
[5] = PACAP-related neuropeptide 10^−9 M, amyloid (50 μM), cell survival rate vs no peptide

Compound: VIP short form (VIP26) (HSDAVFTDNYTRLRKQMAVKKYLNSI) [Peptide 24]
- Neuroprotective action [1, 4]: +

Compound: PACAP long form (PACAP28) (H-HSDGIFTDSYSRYRKQMAVKKYLAAVLG-NH2; ends and bridges not checked) [Peptide 29]
- Neuroprotective action [1, 5]: +

Compound: VIP short form (VIP27) (HSDAVFTDNYTRLRKQMAVKKYLNSIL) [Peptide 25]
- Neuroprotective action [1, 4]: +

Compound: VIP highly basic derivative C (HSDAVFTDNYTRLRRQLAVRRYLNSILNGRR) [Peptide 13]
- Neuroprotective action [1, 4]: +

Compound: PACAP-like-peptide (stargazer-PACAP) (H-HSDGIFTDSYSRYRKQMAVQKYLAAVLGRRYRQRVRNK-NH2; ends and bridges not checked) [Peptide 5]
- Neuroprotective action [1, 5]: +

Compound: PACAP long form (PACAP30) (H-HSDGIFTDSYSRYRKQMAVKKYLAAVLGKR-NH2; ends and bridges not checked) [Peptide 31]
- Neuroprotective action [1, 5]: +

Compound: PACAP long form (PACAP32) (H-HSDGIFTDSYSRYRKQMAVKKYLAAVLGKRYK-NH2; ends and bridges not checked) [Peptide 33]
- Neuroprotective action [1, 5]: +

Compound: PACAP27 highly basic derivative C (H-HSDGIFTDSYSRYRRQLAVRRYLAAVLGRR-NH2; ends and bridges not checked) [Peptide 17]
- Neuroprotective action [1, 5]: +

Compound: β-amyloid 1-42
- cell death by β-amyloid vs control group ([2]; 0.2 μM insulin-containing serum-free DMEM): significant cell death
- cell death by β-amyloid vs control group ([2]; 0.25% horse serum and 0.25% newborn calf serum-containing DMEM): significant cell death
- cell death by β-amyloid vs control group ([2]; 5% horse serum and 5% newborn calf serum-containing DMEM): no cell death
- cells died in the presence of β-amyloid ([1]; β-amyloid alone, WST-8, FIG. 5): approximately 70%
- activity of caspase-3 ([3]; addition of 10^−5 M β-amyloid): improved

Compound: VIP short form (HSDAVFTDNYTRLRKQMAVKKYL) [Peptide 20]
- Neuroprotective action [1, 4]: +

Compound: VIP highly basic derivative B (HSDAVFTDNYTRLRRQLAVRRYLNSILNGKR) [Peptide 12]
- Neuroprotective action [1, 4]: +

Compound: PACAP long form (PACAP34) (H-HSDGIFTDSYSRYRKQMAVKKYLAAVLGKRYKQR-NH2; ends and bridges not checked) [Peptide 35]
- Neuroprotective action [1, 5]: +

Compound: VIP short form (VIP24) (HSDAVFTDNYTRLRKQMAVKKYLN) [Peptide 22]
- Neuroprotective action [1, 4]: +

Compound: PACAP long form (PACAP36) (H-HSDGIFTDSYSRYRKQMAVKKYLAAVLGKRYKQRVK-NH2; ends and bridges not checked) [Peptide 37]
- Neuroprotective action [1, 5]: +

Compound: Arg-PACAP38 (H-HSDGIFTDSYSRYRRQLAVRRYLAAVLGRRYRQRVRNR-NH2; ends and bridges not checked) [Peptide 4]
- Neuroprotective action [1, 5]: +

Compound: [A^4, V^5, N^9]-PACAP27 [Peptide 8]
- Neuroprotective action [1, 5]: +

Compound: PACAP38 [Peptide 1]
- Neuroprotective action [1]: +

Compound: Arg-PACAP27 (H-HSDGIFTDSYSRYRRQLAVRRYLAAVL-NH2; ends and bridges not checked) [Peptide 6]
- Neuroprotective action [1, 5]: +

Compound: PACAP27 highly basic derivative B (H-HSDGIFTDSYSRYRRQLAVRRYLAAVLGKR-NH2; ends and bridges not checked) [Peptide 16]
- Neuroprotective action [1, 5]: +

Compound: VIP short form (VIP25) (HSDAVFTDNYTRLRKQMAVKKYLNS) [Peptide 23]
- Neuroprotective action [1, 4]: +

Compound: [G^4, I^5, S^9]-VIP (H-HSDGIFTDSYTRLRKQMAVKKYLNSILN-NH2; ends and bridges not checked) [Peptide 10]
- Neuroprotective action [1, 4]: +

Compound: PACAP long form (PACAP29) (H-HSDGIFTDSYSRYRKQMAVKKYLAAVLGK-NH2; ends and bridges not checked) [Peptide 30]
- Neuroprotective action [1, 5]: +

Compound: humanin (MAPRGFSCLLLLTSEIDLPVKRRA; Humanin; UniProt Q8IVG9 1-24, looked up) [a recently found human-derived neuroprotective substance, reference compound]
- neuroprotective action against cell death by β-amyloid (cell survival rate) ([1]; FIG. 5): showed neuroprotective action, although the effect was also weaker than that of PACAP27

Compound: CCCC(=O)Nc1ncnc2c1ncn2[C@@H]1O[C@@H]2COP(=O)(O)O[C@H]2[C@H]1OC(=O)CCC [dibutyryl-cAMP, reference compound]
- neuroprotective action against cell death by β-amyloid (cell survival rate) ([1]; FIG. 5): cell death was very strongly suppressed
- effect on caspase-3 activation by β-amyloid ([3]; 10^−5 M β-amyloid, cAMP derivative 10^−4 M): significantly attenuated

Compound: VIP/PACAP highly basic chimera peptide (H-HSDAVFTDNYTRLRRQ[Nle]AVRRYLNSILNGRRYRQRVRNR-NH2; ends and bridges not checked) [Peptide 18]
- Neuroprotective action [1, 4]: +

Compound: PACAP long form (PACAP37) (H-HSDGIFTDSYSRYRKQMAVKKYLAAVLGKRYKQRVKN-NH2; ends and bridges not checked) [Peptide 38]
- Neuroprotective action [1, 5]: +

Compound: [G^4, I^5]-VIP (H-HSDGIFTDNYTRLRKQMAVKKYLNSILN-NH2; ends and bridges not checked) [Peptide 9]
- Neuroprotective action [1, 4]: +

Compound: PACAP long form (PACAP31) (H-HSDGIFTDSYSRYRKQMAVKKYLAAVLGKRY-NH2; ends and bridges not checked) [Peptide 32]
- Neuroprotective action [1, 5]: +

Compound: PACAP short form (PACAP26) (H-HSDGIFTDSYSRYRKQMAVKKYLAAV-NH2; ends and bridges not checked) [Peptide 28]
- Neuroprotective action [1, 5]: +

Compound: PACAP short form (H-HSDGIFTDSYSRYRKQMAVKKYL-NH2; ends and bridges not checked) [Peptide 19]
- Neuroprotective action [1, 5]: +

Compound: VIP highly basic derivative A (HSDAVFTDNYTRLRRQLAVRRYLNSILNGK) [Peptide 11]
- Neuroprotective action [1, 4]: +

Compound: PACAP long form (PACAP35) (H-HSDGIFTDSYSRYRKQMAVKKYLAAVLGKRYKQRV-NH2; ends and bridges not checked) [Peptide 36]
- Neuroprotective action [1, 5]: +

Compound: PACAP-like-peptide (stingray-PACAP) (H-HSDGIFTDSYSRYRKQMAVKKYLAAVLGKRYKPKRRNSGRRVFY-NH2; ends and bridges not checked) [Peptide 21]
- Neuroprotective action [1, 5]: +

Compound: PACAP short form (PACAP25) (H-HSDGIFTDSYSRYRKQMAVKKYLAA-NH2; ends and bridges not checked) [Peptide 27]
- Neuroprotective action [1, 5]: +

Compound: PACAP short form (PACAP24) (H-HSDGIFTDSYSRYRKQMAVKKYLA-NH2; ends and bridges not checked) [Peptide 26]
- Neuroprotective action [1, 5]: +

Compound: PACAP long form (PACAP33) (H-HSDGIFTDSYSRYRKQMAVKKYLAAVLGKRYKQ-NH2; ends and bridges not checked) [Peptide 34]
- Neuroprotective action [1, 5]: +

Compound: PACAP27 (H-HSDGIFTDSYSRYRKQMAVKKYLAAVL-NH2; ends and bridges not checked) [Peptide 2]
- neuroprotective action against cell death by β-amyloid (lactate dehydrogenase released into media) ([2]; β-amyloid 10^−5M, PACAP27 10^−9M, over time, 0.2 μM insulin-containing serum-free DMEM, FIG. 4): cell death was very strongly suppressed
- Neuroprotective action [1, 5]: +
- neuroprotective action against cell death by β-amyloid (cell survival rate) ([1]; FIG. 5): distinctly strong neuroprotective action

Compound: [A^4, V^5]-PACAP27 (H-HSDAVFTDSYSRYRKQMAVKKYLAAVL-NH2; ends and bridges not checked) [Peptide 7]
- Neuroprotective action [1, 5]: +

Compound: PACAP27 highly basic derivative A (H-HSDGIFTDSYSRYRRQLAVRRYLAAVLGK-NH2; ends and bridges not checked) [Peptide 15]
- Neuroprotective action [1, 5]: +

Reference: patent US20040132648A1, “Remedies and/or preventives for conformational diseases” (priority 2001, published 2004)
